From patent US6645479B1, “Targeted delivery of active/bioactive and perfuming compositions” (International Flavors & Fragrances Inc., priority 1997, dated 2003)

test: Vapor pressure of fragrance components; conditions: not given

Vapor Pressure mm/Hg at 25° C. [mm/Hg] | Compound
0.009 | CCCCCCCCCC(C)C=O (stereo not shown) [methyl nonyl acetaldehyde]
0.02 | CC1=CCC(C(C)(C)O)CC1 (stereo not drawn) [α-terpineol]
0.02 | CC1(C)[C@H]2CC[C@]1(C)[C@H](O)C2 [l-borneol]
0.0003 | CCCCCCC(C=O)=Cc1ccccc1 [hexyl cinnamic aldehyde]
0.002 | peach aldehyde coeur
0.1 | CC(=O)OC(C)c1ccccc1 (stereo not shown) [styralyl acetate]
0.02 | OCCc1ccccc1 [β-phenyl ethyl alcohol]
0.05 | C=CC(C)(O)CCC=C(C)C (stereo not shown) [linalool]
0.09 | CC(=O)O[C@@H]1C[C@H]2CC[C@]1(C)C2(C)C (racemic) [isobornyl acetate]
0.006 | CC(=O)/C=C/C1=C(C)CCCC1(C)C [β-ionone]

More lines, now with the values behind:

Compound | Vapor Pressure mm/Hg at 25° C. [mm/Hg]
C=CC(C)CCCC(C)(C)O (stereo not shown) [dihydromyrcenol] | 0.09
CC(=O)c1cc2c(cc1C)C(C)(C)C(C)CC2(C)C (stereo not shown) [TONALID ®] | 0.0001
CC(=O)OC1CCC(C(C)(C)C)CC1 (stereo not shown) [VERTENEX ® HC] | 0.03
C=CCOC(=O)COCCC(C)C [allyl amyl glycolate] | 0.07
CC(=O)OCc1ccccc1 [benzyl acetate] | 0.1
C=CC(C)(CCC=C(C)C)OC(C)=O (stereo not shown) [linalyl acetate] | 0.07
CC/C=C\CCOC(=O)c1ccccc1O [cis-3-hexenyl salicylate] | 0.0008
C=CCc1ccc(OC)cc1 [methyl chavicol] | 0.09
CC(=O)C1(C)CC2=C(CCCC2(C)C)CC1C (stereo not shown) [ISO E SUPER ®] | 0.002
CC/C=C\CCOC(C)=O [cis-3-hexenyl acetate] | 2.0
CC12CCC(CC1=O)C2(C)C (stereo not shown) [camphor] | 0.1
CC1=CC(C)C(C=O)CC1 (stereo not shown) | 0.3
CC(C=O)Cc1ccc(C(C)C)cc1 (stereo not shown) [cyclamal] | 0.004
CC(C=O)Cc1ccc(C(C)(C)C)cc1 (stereo not shown) [LILIAL ®] | 0.003
CC(C)=CCCC(C)CCO (stereo not shown) [citronellol] | 0.009

test: IFF permeation test: permeation rate through wax or polymer matrix; conditions: matrix: carnauba wax
Description: Referring to FIGS. 4A and 4B, fluid 46 is located in jar 44. Jar 44 has sidearm 45. The fluid 46 reaches fluid level 47. Directly in line with fluid level 47 is membrane 41. The diffusion membrane 41 is held in place with flanges 43 and jar lip 42, using bolts 401a and 401b which secures the flange in place. The sidearm 45 is closed using closure 49. The permeability apparatus is shown using reference numeral 40. The IFF permeability test is based on the use of the apparatus of FIGS. 4A and 4B. The weight of membrane 41 is taken, initially, before being placed within the flange 43 and the jar lip 42. Substance 46 for which the permeability is to be measured is placed into jar 44 to fluid level 47. The apparatus containing fluid 46 remains in place for a fixed period of time. At the end of that period of time, bolts 401a and 401b as well as 401c are loosened, the flange 43 removed and membrane 41 is removed and weighed, thereby gathering sufficient data to determine the permeability of the particular substance 46. […] The Y axis measures weight loss and is indicated by reference numeral 54.

Compound | permeation rate through matrix material
C/C=C(\C)C(=O)OCC [ethyl tiglate] | 4.4 × 10^−4

same assay, conditions: matrix: polyamide (MACROMELT 6030)

Compound | permeation rate through matrix material
C/C=C(\C)C(=O)OCC [ethyl tiglate] | 4.2 × 10^−4

same assay, conditions: matrix: polyethylene wax, molecular weight 500

Compound | permeation rate through matrix material
C/C=C(\C)C(=O)OCC [ethyl tiglate] | 2.0 × 10^−5
